Experimental data as given in the NIST ThermoML archive (doi:10.1016/j.jct.2011.08.016).

Test: xn = mol fraction of the nth substance listed
Settings: Liquid, Vibrating tube method

CCCCCCCCCC [decane] + CCCCCCC
Settings	mass density [kg/m3]
323.15 K, 7000 kPa, x2 = 0.0531	711.49
323.15 K, 7000 kPa, x2 = 0.2594	703.89
323.15 K, 8000 kPa, x2 = 0.0531	712.35
323.15 K, 8000 kPa, x2 = 0.2594	704.79
323.15 K, 9000 kPa, x2 = 0.0531	713.2
323.15 K, 9000 kPa, x2 = 0.2594	705.68
323.15 K, 10000 kPa, x2 = 0.0531	714.07
323.15 K, 10000 kPa, x2 = 0.2594	706.56
323.15 K, 10990 kPa, x2 = 0.0531	714.9
323.15 K, 10990 kPa, x2 = 0.2594	707.43
323.15 K, 12000 kPa, x2 = 0.0531	715.73
323.15 K, 12000 kPa, x2 = 0.2594	708.29
323.15 K, 13000 kPa, x2 = 0.0531	716.54
323.15 K, 13000 kPa, x2 = 0.2594	709.14
323.15 K, 14000 kPa, x2 = 0.0531	717.35
323.15 K, 14000 kPa, x2 = 0.2594	709.98
323.15 K, 15000 kPa, x2 = 0.0531	718.14
323.15 K, 15000 kPa, x2 = 0.2594	710.81
323.15 K, 16000 kPa, x2 = 0.0531	718.92
323.15 K, 16000 kPa, x2 = 0.2594	711.62
323.15 K, 17000 kPa, x2 = 0.0531	719.7
323.15 K, 17000 kPa, x2 = 0.2594	712.43
323.15 K, 18000 kPa, x2 = 0.0531	720.46
323.15 K, 18000 kPa, x2 = 0.2594	713.25
323.15 K, 19000 kPa, x2 = 0.0531	721.21
323.15 K, 19000 kPa, x2 = 0.2594	714.01
323.15 K, 20000 kPa, x2 = 0.0531	721.96
323.15 K, 20000 kPa, x2 = 0.2594	714.78
323.15 K, 21000 kPa, x2 = 0.0531	722.7
323.15 K, 21000 kPa, x2 = 0.2594	715.55
323.15 K, 22000 kPa, x2 = 0.0531	723.41
323.15 K, 22000 kPa, x2 = 0.2594	716.3
323.15 K, 23000 kPa, x2 = 0.0531	724.12
323.15 K, 23000 kPa, x2 = 0.2594	716.98
323.15 K, 24000 kPa, x2 = 0.0531	724.82
323.15 K, 24000 kPa, x2 = 0.2594	717.65
323.15 K, 25000 kPa, x2 = 0.0531	725.51
323.15 K, 25000 kPa, x2 = 0.2594	718.3
323.16 K, 1000 kPa, x2 = 0.777	673.59
323.16 K, 2000 kPa, x2 = 0.777	674.58
323.16 K, 3000 kPa, x2 = 0.777	675.56
323.16 K, 4000 kPa, x2 = 0.777	676.57
323.16 K, 5000 kPa, x2 = 0.777	677.56
323.16 K, 6000 kPa, x2 = 0.777	678.57
323.16 K, 7000 kPa, x2 = 0.777	679.58
323.16 K, 8000 kPa, x2 = 0.777	680.57
323.16 K, 9000 kPa, x2 = 0.777	681.56
323.16 K, 10000 kPa, x2 = 0.777	682.54
323.16 K, 10990 kPa, x2 = 0.777	683.5
323.16 K, 12000 kPa, x2 = 0.777	684.45
323.16 K, 13000 kPa, x2 = 0.777	685.39
323.16 K, 14000 kPa, x2 = 0.777	686.31
323.16 K, 15000 kPa, x2 = 0.777	687.21
323.16 K, 16000 kPa, x2 = 0.777	688.1
323.16 K, 17000 kPa, x2 = 0.777	688.99
323.16 K, 18000 kPa, x2 = 0.777	689.87
323.16 K, 19000 kPa, x2 = 0.777	690.73
323.16 K, 20000 kPa, x2 = 0.777	691.58
323.16 K, 21000 kPa, x2 = 0.777	692.41
323.16 K, 22000 kPa, x2 = 0.777	693.22
323.16 K, 23000 kPa, x2 = 0.777	693.96
323.16 K, 24000 kPa, x2 = 0.777	694.7
323.16 K, 25000 kPa, x2 = 0.777	695.42
333.11 K, 1000 kPa, x2 = 0.5219	679.05
333.11 K, 2000 kPa, x2 = 0.5219	680.06
333.11 K, 3000 kPa, x2 = 0.5219	681.02
333.11 K, 4000 kPa, x2 = 0.5219	682.02
333.11 K, 5000 kPa, x2 = 0.5219	683.02
333.11 K, 6000 kPa, x2 = 0.5219	684.02
333.11 K, 7000 kPa, x2 = 0.5219	685.02
333.11 K, 8000 kPa, x2 = 0.5219	686.03
333.11 K, 9000 kPa, x2 = 0.5219	687.04
333.11 K, 10000 kPa, x2 = 0.5219	688.03
333.11 K, 10990 kPa, x2 = 0.5219	689.01
333.11 K, 12000 kPa, x2 = 0.5219	689.97
333.11 K, 13000 kPa, x2 = 0.5219	690.92
333.11 K, 14000 kPa, x2 = 0.5219	691.85
333.11 K, 15000 kPa, x2 = 0.5219	692.77
333.11 K, 16000 kPa, x2 = 0.5219	693.68
333.11 K, 17000 kPa, x2 = 0.5219	694.58
333.11 K, 18000 kPa, x2 = 0.5219	695.49
333.11 K, 19000 kPa, x2 = 0.5219	696.33
333.11 K, 20000 kPa, x2 = 0.5219	697.15
333.11 K, 21000 kPa, x2 = 0.5219	697.97
333.11 K, 22000 kPa, x2 = 0.5219	698.76
333.11 K, 23000 kPa, x2 = 0.5219	699.54
333.11 K, 24000 kPa, x2 = 0.5219	700.3
333.11 K, 25000 kPa, x2 = 0.5219	701.04
333.12 K, 1000 kPa, x2 = 0.0531	698.2
333.12 K, 1000 kPa, x2 = 0.777	665.15
333.12 K, 2000 kPa, x2 = 0.0531	699.22
333.12 K, 2000 kPa, x2 = 0.777	666.23
333.12 K, 3000 kPa, x2 = 0.0531	700.22
333.12 K, 3000 kPa, x2 = 0.777	667.33
